Measurements taken from publication PMC5501099 (Malaria Journal, 2017).

How the values were obtained:
Format in all cases: in vivo
Anopheles minimus = experiment: Ivermectin lethal concentration / survivorship, membrane blood feeding; details: An. minimus
Procedure: (§1) Powdered formulation of ivermectin compound was obtained from Sigma-Aldrich (St. Louis, USA). […] Control blood meals consisted of previously frozen DMSO diluted in PBS to match the ratio of DMSO and PBS fed to mosquitoes in the ivermectin-containing blood meals.
(§2) After blood feeding via a membrane feeder, unfed mosquitoes were removed and discarded. Blood-fed mosquitoes were held in 3.5-l plastic containers with access to 10% sucrose and kept in an incubator at 25 ± 1 °C and 70 ± 10% relative humidity, on a 12 h light:12 h dark photoperiod. Mosquito survivorship was monitored for 7 days, every 24 h dead mosquitoes were removed and recorded, and on day 7 all remaining mosquitoes were frozen and counted as alive.
(§3) A non-linear mixed effects model with probit analysis was used to calculate LC50, LC25 and LC5 values with Statistical Analysis Software (SAS Institute Inc, Cary, NC, USA) as described previously. Hazard ratios for mosquito mortality at day 7 post blood meal were calculated using Poisson regression analysis with STATA version 12.1 (StataCorp LLC, College Station, TX, USA). Oocyst and sporozoite prevalence (i.e. proportion of infected mosquitoes) was compared by Fishers Exact test. Oocyst intensity (i.e. number of oocysts per infected mosquito) was compared by the Mann–Whitney U test. To determine if P. vivax infection altered mosquito survivorship post-ivermectin ingestion survival data were analysed by the Mantel–Cox method. The Fishers Exact, Mann–Whitney U, and survival analysis data were analysed with Prism 7 (GraphPad Software Inc, San Diego, CA, USA).

Anopheles sawadwongporni = experiment: as above; details: An. sawadwongporni
Procedure: as §1, §2, §3

Anopheles campestris = experiment: as above; details: An. campestris
Procedure: as §1, §2, §3

Anopheles dirus [1] = experiment: as above; details: An. dirus
Procedure: as §1, §2, §3

Anopheles dirus [2] = experiment: Effect of Plasmodium vivax infection on Anopheles dirus survivorship response to ivermectin; details: ivermectin LC25 co-ingested with parasites on DPI 0 vs ivermectin LC25 only; 14 days
From the text: Anopheles dirus were fed a P. vivax blood meal or a non-infectious blood meal prepared from uninfected donor blood and serum was replaced as described above. […] After blood feeding, 50 blood fed females from each treatment group were transferred to a new 0.5-l cardboard carton. Mosquito survivorship was monitored daily and dead mosquitoes were removed from the containers until day 14 post blood meal. Any live mosquitoes at day 14 were frozen and counted as alive. A separate group of mosquitoes were fed a P. vivax control blood meal to ensure that the P. vivax sample was infectious to mosquitoes and only isolates that successfully infected at least 80% of An. dirus were included in the results.
as §3, with “Oocyst and sporozoite prevalence (i.e. proportion of infected mosquitoes) was compared by Fishers Exact test. Oocyst intensity (i.e. number of oocysts per infected mosquito) was compared by the Mann–Whitney U test.” left out

ivermectin
LC5 (Anopheles minimus; 7 days post blood meal): 6.7 ng/mL
LC25 (Anopheles minimus; 7 days post blood meal): 0.0113 µg/mL
LC50 (Anopheles minimus; 7 days post blood meal): 0.0163 µg/mL
IRR (Incidence Rate Ratio of mortality at day 7, treatment group divided by control group) (Anopheles minimus; ivermectin imbibed 1 ng/ml): 2.7
IRR (Incidence Rate Ratio of mortality at day 7, treatment group divided by control group) (Anopheles minimus; ivermectin imbibed 2 ng/ml): 0.5
IRR (Incidence Rate Ratio of mortality at day 7, treatment group divided by control group) (Anopheles minimus; ivermectin imbibed 3 ng/ml): 1.8
IRR (Incidence Rate Ratio of mortality at day 7, treatment group divided by control group) (Anopheles minimus; ivermectin imbibed 4 ng/ml): 2.9
IRR (Incidence Rate Ratio of mortality at day 7, treatment group divided by control group) (Anopheles minimus; ivermectin imbibed 5 ng/ml): 3.6
IRR (Incidence Rate Ratio of mortality at day 7, treatment group divided by control group) (Anopheles minimus; ivermectin imbibed 6 ng/ml): 1.3
IRR (Incidence Rate Ratio of mortality at day 7, treatment group divided by control group) (Anopheles minimus; ivermectin imbibed 8 ng/ml): 2.8
IRR (Incidence Rate Ratio of mortality at day 7, treatment group divided by control group) (Anopheles minimus; ivermectin imbibed 10 ng/ml): 3.8
IRR (Incidence Rate Ratio of mortality at day 7, treatment group divided by control group) (Anopheles minimus; ivermectin imbibed 12 ng/ml): 4.6
IRR (Incidence Rate Ratio of mortality at day 7, treatment group divided by control group) (Anopheles minimus; ivermectin imbibed 15 ng/ml): 5.8
IRR (Incidence Rate Ratio of mortality at day 7, treatment group divided by control group) (Anopheles minimus; ivermectin imbibed 18 ng/ml): 7.0
IRR (Incidence Rate Ratio of mortality at day 7, treatment group divided by control group) (Anopheles minimus; ivermectin imbibed 20 ng/ml): 9.5
IRR (Incidence Rate Ratio of mortality at day 7, treatment group divided by control group) (Anopheles minimus; ivermectin imbibed 25 ng/ml): 9.0
IRR (Incidence Rate Ratio of mortality at day 7, treatment group divided by control group) (Anopheles minimus; ivermectin imbibed 28 ng/ml): 10.5
IRR (Incidence Rate Ratio of mortality at day 7, treatment group divided by control group) (Anopheles minimus; ivermectin imbibed 30 ng/ml): 11.5
LC5 (Anopheles sawadwongporni; 7 days post blood meal): 16.1 ng/mL
LC25 (Anopheles sawadwongporni; 7 days post blood meal): 0.0218 µg/mL
LC50 (Anopheles sawadwongporni; 7 days post blood meal): 0.0269 µg/mL
IRR (Incidence Rate Ratio of mortality at day 7, treatment group divided by control group) (Anopheles sawadwongporni; ivermectin imbibed 4 ng/ml): 0.3
IRR (Incidence Rate Ratio of mortality at day 7, treatment group divided by control group) (Anopheles sawadwongporni; ivermectin imbibed 5 ng/ml): 1.3
IRR (Incidence Rate Ratio of mortality at day 7, treatment group divided by control group) (Anopheles sawadwongporni; ivermectin imbibed 6 ng/ml): 0.3
IRR (Incidence Rate Ratio of mortality at day 7, treatment group divided by control group) (Anopheles sawadwongporni; ivermectin imbibed 8 ng/ml): 0.6
IRR (Incidence Rate Ratio of mortality at day 7, treatment group divided by control group) (Anopheles sawadwongporni; ivermectin imbibed 10 ng/ml): 1.1
IRR (Incidence Rate Ratio of mortality at day 7, treatment group divided by control group) (Anopheles sawadwongporni; ivermectin imbibed 12 ng/ml): 0.9
IRR (Incidence Rate Ratio of mortality at day 7, treatment group divided by control group) (Anopheles sawadwongporni; ivermectin imbibed 15 ng/ml): 2.1
IRR (Incidence Rate Ratio of mortality at day 7, treatment group divided by control group) (Anopheles sawadwongporni; ivermectin imbibed 18 ng/ml): 2.1
IRR (Incidence Rate Ratio of mortality at day 7, treatment group divided by control group) (Anopheles sawadwongporni; ivermectin imbibed 20 ng/ml): 2.7
IRR (Incidence Rate Ratio of mortality at day 7, treatment group divided by control group) (Anopheles sawadwongporni; ivermectin imbibed 22 ng/ml): 2.3
IRR (Incidence Rate Ratio of mortality at day 7, treatment group divided by control group) (Anopheles sawadwongporni; ivermectin imbibed 25 ng/ml): 5.3
IRR (Incidence Rate Ratio of mortality at day 7, treatment group divided by control group) (Anopheles sawadwongporni; ivermectin imbibed 28 ng/ml): 5.2
IRR (Incidence Rate Ratio of mortality at day 7, treatment group divided by control group) (Anopheles sawadwongporni; ivermectin imbibed 30 ng/ml): 8.0
IRR (Incidence Rate Ratio of mortality at day 7, treatment group divided by control group) (Anopheles sawadwongporni; ivermectin imbibed 35 ng/ml): 8.4
IRR (Incidence Rate Ratio of mortality at day 7, treatment group divided by control group) (Anopheles sawadwongporni; ivermectin imbibed 40 ng/ml): 9.4
LC5 (Anopheles campestris; 7 days post blood meal): 11.7 ng/mL
LC25 (Anopheles campestris; 7 days post blood meal): 0.0189 µg/mL
LC50 (Anopheles campestris; 7 days post blood meal): 0.0264 µg/mL
IRR (Incidence Rate Ratio of mortality at day 7, treatment group divided by control group) (Anopheles campestris; ivermectin imbibed 3 ng/ml): 0.8
IRR (Incidence Rate Ratio of mortality at day 7, treatment group divided by control group) (Anopheles campestris; ivermectin imbibed 4 ng/ml): 1.7
IRR (Incidence Rate Ratio of mortality at day 7, treatment group divided by control group) (Anopheles campestris; ivermectin imbibed 5 ng/ml): 1.4
IRR (Incidence Rate Ratio of mortality at day 7, treatment group divided by control group) (Anopheles campestris; ivermectin imbibed 6 ng/ml): 1.0
IRR (Incidence Rate Ratio of mortality at day 7, treatment group divided by control group) (Anopheles campestris; ivermectin imbibed 8 ng/ml): 1.2
IRR (Incidence Rate Ratio of mortality at day 7, treatment group divided by control group) (Anopheles campestris; ivermectin imbibed 10 ng/ml): 1.0
IRR (Incidence Rate Ratio of mortality at day 7, treatment group divided by control group) (Anopheles campestris; ivermectin imbibed 15 ng/ml): 1.8
IRR (Incidence Rate Ratio of mortality at day 7, treatment group divided by control group) (Anopheles campestris; ivermectin imbibed 18 ng/ml): 2.7
IRR (Incidence Rate Ratio of mortality at day 7, treatment group divided by control group) (Anopheles campestris; ivermectin imbibed 20 ng/ml): 2.5
IRR (Incidence Rate Ratio of mortality at day 7, treatment group divided by control group) (Anopheles campestris; ivermectin imbibed 22 ng/ml): 3.4
IRR (Incidence Rate Ratio of mortality at day 7, treatment group divided by control group) (Anopheles campestris; ivermectin imbibed 25 ng/ml): 3.4
IRR (Incidence Rate Ratio of mortality at day 7, treatment group divided by control group) (Anopheles campestris; ivermectin imbibed 30 ng/ml): 2.5
IRR (Incidence Rate Ratio of mortality at day 7, treatment group divided by control group) (Anopheles campestris; ivermectin imbibed 35 ng/ml): 2.5
IRR (Incidence Rate Ratio of mortality at day 7, treatment group divided by control group) (Anopheles campestris; ivermectin imbibed 45 ng/ml): 4.9
IRR (Incidence Rate Ratio of mortality at day 7, treatment group divided by control group) (Anopheles campestris; ivermectin imbibed 50 ng/ml): 5.3
LC5 (Anopheles dirus [1]; 7 days post blood meal): 22.1 ng/mL
LC25 (Anopheles dirus [1]; 7 days post blood meal): 0.0381 µg/mL
LC50 (Anopheles dirus [1]; 7 days post blood meal): 0.0556 µg/mL
IRR (Incidence Rate Ratio of mortality at day 7, treatment group divided by control group) (Anopheles dirus [1]; ivermectin imbibed 20 ng/ml): 2.8
IRR (Incidence Rate Ratio of mortality at day 7, treatment group divided by control group) (Anopheles dirus [1]; ivermectin imbibed 25 ng/ml): 8.2
IRR (Incidence Rate Ratio of mortality at day 7, treatment group divided by control group) (Anopheles dirus [1]; ivermectin imbibed 30 ng/ml): 4.7
IRR (Incidence Rate Ratio of mortality at day 7, treatment group divided by control group) (Anopheles dirus [1]; ivermectin imbibed 35 ng/ml): 24.4
IRR (Incidence Rate Ratio of mortality at day 7, treatment group divided by control group) (Anopheles dirus [1]; ivermectin imbibed 40 ng/ml): 19.1
IRR (Incidence Rate Ratio of mortality at day 7, treatment group divided by control group) (Anopheles dirus [1]; ivermectin imbibed 45 ng/ml): 21.4
IRR (Incidence Rate Ratio of mortality at day 7, treatment group divided by control group) (Anopheles dirus [1]; ivermectin imbibed 50 ng/ml): 32.3
IRR (Incidence Rate Ratio of mortality at day 7, treatment group divided by control group) (Anopheles dirus [1]; ivermectin imbibed 55 ng/ml): 29.6
IRR (Incidence Rate Ratio of mortality at day 7, treatment group divided by control group) (Anopheles dirus [1]; ivermectin imbibed 60 ng/ml): 36.1
IRR (Incidence Rate Ratio of mortality at day 7, treatment group divided by control group) (Anopheles dirus [1]; ivermectin imbibed 65 ng/ml): 44.5
IRR (Incidence Rate Ratio of mortality at day 7, treatment group divided by control group) (Anopheles dirus [1]; ivermectin imbibed 70 ng/ml): 42.5
IRR (Incidence Rate Ratio of mortality at day 7, treatment group divided by control group) (Anopheles dirus [1]; ivermectin imbibed 80 ng/ml): 46.8
IRR (Incidence Rate Ratio of mortality at day 7, treatment group divided by control group) (Anopheles dirus [1]; ivermectin imbibed 85 ng/ml): 55.7
IRR (Incidence Rate Ratio of mortality at day 7, treatment group divided by control group) (Anopheles dirus [1]; ivermectin imbibed 95 ng/ml): 58.1
IRR (Incidence Rate Ratio of mortality at day 7, treatment group divided by control group) (Anopheles dirus [1]; ivermectin imbibed 100 ng/ml): 64.3
Effect of P. vivax infection on survivorship of An. dirus that ingested ivermectin (Anopheles dirus [2]): did not alter survivorship
